This note sets out measurements from PubChem BioAssay (NCI).

“And” between values parts separate entries of the source, which are not always exact repeats. Identical values can stand only once.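 Exposure lasted 48 hours, with cells grown in 96-well plates and compounds tested at five concentrations. GI50 = concentration required for 50% inhibition of growth. TGI: total growth inhibition.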

Test in all cases: NCI-60 cell line screen, 48 h
Assay [1] relates to 786-0 renal.
Assay [2] has as its system ACHN renal.
For assay [3], the system named is HCC-2998 colon.
The subject of assay [4] is HT29 colon.
The test system of assay [5] is M14 melanoma.
Assay [6] relates to RPMI-8226 leukemia.
Assay [7] deals with SF-295 CNS.
In assay [8] the test system is SK-MEL-2 melanoma.
The subject of assay [9] is SK-MEL-5 melanoma.

Turning to `O=c1nc(N2CCCC2)nc(N2CCCC2)s1`, the TGI in assay [1], in [2], in assay [3], in assay [4], in assay [5] and in [6] was greater than 100 µM each time. Besides, the TGI in assay [7], in assay [8] and in assay [9] was greater than 100 µM throughout.

Turning to `OCCCc1cnco1`, the TGI in assay [1], in [2], in assay [3], in assay [4], in [5] and in [6] was greater than 100 µM in each case. Besides, the TGI in assay [7] and in assay [9] was greater than 100 µM each time.

For `CC(=O)N(CCN1C(=O)c2ccccc2C1=O)CCN1C(=O)c2ccccc2C1=O`, the TGI in assay [1], in assay [2], in [3], in assay [5], in [6] and in [7] was greater than 100 µM each time. Further, the TGI in assay [8] and in assay [9] was greater than 100 µM in each case.

In the case of `C=C1C(=O)c2cc3c(cc2C(c2cc(OC)c(OC)c(OC)c2)[C@@H]1C(=O)O)OCO3` (stereo not given in full), the TGI in assay [1], in [2], in [3], in [4], in [5] and in assay [6] was greater than 100 µM in each case. The TGI in assay [7] and in [9] was greater than 100 µM each time.

`O=C(Cc1ccccc1)N/N=C(/c1nc2ccc([N+](=O)[O-])cc2[nH]c1=O)C(O)c1ccccc1Cl` (stereo not given): the TGI in [1], in [2], in assay [3], in assay [4], in assay [5] and in [6] was greater than 100 µM each time. Moreover, the TGI in assay [7], in assay [8] and in assay [9] was greater than 100 µM throughout.

Consider `CC(=O)OCC1OC([Se-])C(OC(C)=O)C(OC(C)=O)C1OC(C)=O.N#CCC[PH+](CCC#N)CCC#N.[Au+]` (stereo not given), for which the GI50 is 6.3 µM in assay [1]; 7.06 µM in [2]; 12.5 µM in [3]; 4.73 µM in [4]; 3.63 µM in assay [5]; 3.09 µM in assay [6]. For the same compound, the GI50 in [7] was 13.7 µM; in assay [8], 11.8 µM; in [9], 3.43 µM. The TGI in [1] came out at 53.3 µM; in [2] it was 39.4 µM; in [3] it was 43.4 µM; in assay [4], 39.7 µM; in assay [5], 18.3 µM; in assay [6] it was 14.4 µM. Also, the TGI was found to be 35.9 µM in assay [7], 48.4 µM in [8] and 15.9 µM in assay [9].

Turning to `COc1cc(C2C(C(=O)O)=C(COC(C)=O)Oc3cc4c(cc32)OCO4)cc(OC)c1OC(C)=O` (stereo not given), the TGI in assay [1], in [2], in [4], in assay [5], in assay [6] and in [7] was greater than 100 µM throughout. Moreover, the TGI in assay [8] and in [9] was greater than 100 µM throughout.

On to `O=C(N/C=C/C=C/Sc1ccccc1)OCc1ccccc1`, for which the TGI was 31 µM in [1]; 68.9 µM in assay [2]; 42.8 µM in [3]; 31.9 µM in [4]; 32.9 µM in assay [5]; greater than 100 µM in assay [6]. Moreover, the TGI in assay [7] worked out at 35.4 µM; in assay [9], 31.6 µM.

As for `NC(CO)c1ccc(OCc2ccccc2)cc1` (stereo not given), the TGI in assay [1], in [2], in assay [3], in assay [4], in assay [5] and in assay [6] was greater than 100 µM throughout. The TGI in [7], in assay [8] and in assay [9] was greater than 100 µM in each case.

As to `O=[N+]([O-])c1ccc(/C(Cl)=C/c2ccc(/C=C(\Cl)c3ccc([N+](=O)[O-])cc3[N+](=O)[O-])cc2)c([N+](=O)[O-])c1`, the TGI in assay [1], in assay [2], in assay [3], in assay [4], in assay [5] and in assay [6] was greater than 100 µM each time. Further, the TGI in assay [7], in assay [8] and in assay [9] was greater than 100 µM in each case.

Consider `COC1=CC(=O)OC(/C=C(C)/C=C/C2=C(C)CCCC2(C)C)C1` (stereo not given), for which the TGI in assay [1], in assay [2], in assay [3], in assay [4], in [5] and in assay [7] was greater than 100 µM throughout. Further, the TGI in assay [8] and in assay [9] was greater than 100 µM throughout.

On to `CN(C)c1ccc(/C=c2\sc3nnc(-c4cccnc4)n3c2=O)cc1`, for which the TGI in assay [1], in [2], in assay [3], in [5], in assay [6] and in assay [7] was greater than 100 µM in each case. Moreover, the TGI in assay [8] and in [9] was greater than 100 µM each time.

For the compound `CCc1nc2ccccc2c(=O)n1/N=C(\N=Nc1ccc(Cl)cc1)c1ccccc1`, the TGI was 59.2 µM in [1]; greater than 92.4 µM in assay [2]; 95.6 µM in assay [3]; 36.9 µM in assay [4]; greater than 100 µM in assay [5]; greater than 100 µM in assay [6]. Also, the TGI amounted to 53.6 µM in assay [7], 82.5 µM in [8] and 44.6 µM in assay [9].

On to `O=C(/C=C/c1nnc2n(Cc3ccccc3)c(=O)c3c4c(sc3n12)CCCC4)c1ccccc1`, for which the GI50 was 1.56 µM and 2.36 µM in [1]; 3.9 µM in [2]; greater than 100 µM in assay [3]; 0.177 µM and 0.254 µM in [6]; 3.2 µM in [8]; greater than 100 µM in assay [9]. Moreover, the TGI in assay [3] was greater than 100 µM; in assay [5] it was greater than 100 µM; in [6], 0.817 µM and 0.738 µM; in assay [7], greater than 100 µM; in assay [9] it was greater than 100 µM.
